Measured values reported in patent US9550763B2, “Heterocyclic ring and carbocyclic derivative” (Shionogi & Co., Ltd., priority 2012, dated 2017).

Each compound was assayed against human P2X3 receptor (Homo sapiens (Human), UniProt P56373) (assay: Evaluation of human P2X3 receptor inhibitory activity (Test Example 1-1, FDSS 3000, 96-well, 50 nM ATP)). Details: human P2X3 receptor in C6BU-1 cells; Test Example 1-1 (compounds I-001 to I-300).
human P2X3 receptor, sequence (P56373 whole entry): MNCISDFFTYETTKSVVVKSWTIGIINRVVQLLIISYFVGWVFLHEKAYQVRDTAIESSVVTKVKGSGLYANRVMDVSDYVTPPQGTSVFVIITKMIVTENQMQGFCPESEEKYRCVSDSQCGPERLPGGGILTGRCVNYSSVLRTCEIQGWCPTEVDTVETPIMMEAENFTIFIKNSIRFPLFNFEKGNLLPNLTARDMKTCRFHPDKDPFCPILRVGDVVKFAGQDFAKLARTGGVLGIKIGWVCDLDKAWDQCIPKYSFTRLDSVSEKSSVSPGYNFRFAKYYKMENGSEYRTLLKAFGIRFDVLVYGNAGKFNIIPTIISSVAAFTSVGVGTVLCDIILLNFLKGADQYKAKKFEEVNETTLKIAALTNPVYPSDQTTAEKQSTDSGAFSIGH
Type: cell-based
Method in brief: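 C6BU-1 cells stably expressing human P2X3, loaded with 4 μM Fluo-3-AM (pH 7.5), preincubated 5 min with compound before 50 nM ATP challenge; fluorescence followed 4 min on FDSS 3000. IC50 derived from peak/baseline fluorescence ratio, no-compound as 0% and buffer-instead-of-ATP as 100% inhibition.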
For `Cc1ccc(Oc2ccc(/N=c3\[nH]cc(C(N)=O)c(=O)n3Cc3ccc(Cl)cc3)cc2)nn1` [Compound I-180], the IC50 was 21 nM. `O=C(Nc1c[nH]/c(=N\c2ccc(Oc3ccon3)cc2)n(Cc2ccc(Cl)cc2)c1=O)C1CNC1` [Compound I-181] was tested, and the IC50 was 131 nM. `CC(C)(C)OC(=O)N1CCC(C(=O)Nc2c[nH]/c(=N\c3ccc(Oc4ccon4)cc3)n(Cc3ccc(Cl)cc3)c2=O)CC1` [Compound I-182] showed an IC50 of 52 nM. Compound `O=c1c(NC(=O)[C@H]2C[C@H](O)C2)c[nH]/c(=N\c2ccc(Oc3ccon3)cc2)n1Cc1ccc(Cl)cc1` [Compound I-183] has an IC50 of 6 nM. `O=C(Nc1c[nH]/c(=N\c2ccc(Oc3ccon3)cc2)n(Cc2ccc(Cl)cc2)c1=O)C1COC1` [Compound I-184] was tested, and the IC50 was 14 nM. `CN(C)CCC(=O)Nc1c[nH]/c(=N\c2ccc(Oc3ccon3)cc2)n(Cc2ccc(Cl)cc2)c1=O` [Compound I-185] gave an IC50 of 158 nM. `O=C(Nc1c[nH]/c(=N\c2ccc(Oc3ccon3)cc2)n(Cc2ccc(Cl)cc2)c1=O)C1CCNCC1` [Compound I-186] showed an IC50 of 72 nM. Compound `CCCn1c(=O)cc(Nc2ccc(Oc3cccc(C#N)n3)c(C)n2)n(Cc2ccc(Cl)cc2)c1=O` [Compound I-187] has an IC50 of 4 nM. `CCCn1c(=O)cc(Nc2ccc(Oc3cccc(C(=O)O)n3)c(C)n2)n(Cc2ccc(Cl)cc2)c1=O` [Compound I-188] gave an IC50 of 6 nM. `CCC(=O)N(CC)c1c[nH]/c(=N\c2ccc(Oc3cccc(C#N)n3)cc2)n(Cc2ccc(Cl)cc2)c1=O` [Compound I-189] was tested, and the IC50 was 12 nM. `Cc1noc(-c2cn(Cc3ccc(Cl)cc3)/c(=N/c3ccc(Oc4cccc(F)n4)cc3)[nH]c2=O)n1` [Compound I-190, 1-(4-chlorobenzyl)-2-[4-(6-fluoro-2-pyridyloxy)phenylamino]-5-(3-methyl-1,2,4-oxadiazol-5-yl)pyrimidin-4(1H)-one] gave an IC50 of 6 nM. `O=C(Nc1c[nH]/c(=N\c2ccc(Oc3ccon3)cc2)n(Cc2ccc(Cl)cc2)c1=O)C1CCOC1` (centres unmarked) [Compound I-192] showed an IC50 of 6 nM. With `CCC(=O)N(CC)c1c[nH]/c(=N\c2ccc(Oc3cccc(C(=O)O)n3)cc2)n(Cc2ccc(Cl)cc2)c1=O` [Compound I-193] the IC50 was 6 nM. `O=c1c(-c2cccnc2O)c[nH]/c(=N\c2ccc(Oc3ccon3)cc2)n1Cc1ccc(Cl)cc1` [Compound I-194] was tested, and the IC50 was 658 nM. With `CN(C)C(=O)c1c[nH]/c(=N\c2ccc(Oc3cccc(F)n3)cc2)n(Cc2ccc(Cl)cc2)c1=O` [Compound I-195] the IC50 was 70 nM. `CCCn1c(=O)cc(Nc2ccc(Oc3cnc(C#N)nc3)cn2)n(Cc2ccc(Cl)cc2)c1=O` [Compound I-196] showed an IC50 of 37 nM. `CC(=O)N(C)c1c[nH]/c(=N\c2ccc(Oc3cccc(C#N)n3)cc2)n(Cc2ccc(Cl)cc2)c1=O` [Compound I-197] gave an IC50 of 45 nM. With `CCC(=O)N(C)c1c[nH]/c(=N\c2ccc(Oc3cccc(C#N)n3)cc2)n(Cc2ccc(Cl)cc2)c1=O` [Compound I-198] the IC50 was 12 nM. `O=C(NC1CCOCC1)c1cn(Cc2ccc(Cl)cc2)c(Nc2ccc(Oc3ccncc3)cc2)nc1=O` [Compound I-199] gave an IC50 of 8 nM. Compound `NC(=O)c1ccc(Oc2ccc(Nc3nc(=O)c(C(=O)NC4CCOCC4)cn3Cc3ccc(Cl)cc3)cc2)cn1` [Compound I-200] has an IC50 of 10 nM. In the case of `CCCn1c(=O)cc(Nc2ccc(Oc3cnc(C(=O)O)nc3)cn2)n(Cc2ccc(Cl)cc2)c1=O` [Compound I-201], the IC50 is reported as 96 nM. Work on `CCn1c(=O)cc(Nc2cc(C)c(Oc3cccc(C(=O)O)c3)cn2)n(Cc2ccc(Cl)cc2)c1=O` [Compound I-203] yielded an IC50 of 336 nM. `COc1ccc(-c2c[nH]/c(=N\c3ccc(Oc4ccon4)cc3)n(Cc3ccc(Cl)cc3)c2=O)cn1` [Compound I-204] showed an IC50 of 198 nM. `O=c1c(-c2ccc(O)nc2)c[nH]/c(=N\c2ccc(Oc3ccon3)cc2)n1Cc1ccc(Cl)cc1` [Compound I-205] was tested, and the IC50 was 153 nM. Compound `CCOC(=O)c1c[nH]/c(=N\c2ccc(Oc3ccc(F)cn3)c(F)c2)n(Cc2ccc(Cl)cc2)c1=O` [Compound I-206] has an IC50 of 48 nM. With `O=C(O)c1c[nH]/c(=N\c2ccc(Oc3ccc(F)cn3)c(F)c2)n(Cc2ccc(Cl)cc2)c1=O` [Compound I-207] the IC50 was 252 nM. `NC(=O)c1c[nH]/c(=N\c2ccc(Oc3ccc(F)cn3)c(F)c2)n(Cc2ccc(Cl)cc2)c1=O` [Compound I-208] gave an IC50 of 31 nM. Compound `CN(C)C(=O)c1c[nH]/c(=N\c2ccc(Oc3cccc(C#N)n3)cc2)n(Cc2ccc(Cl)cc2)c1=O` [Compound I-209] has an IC50 of 102 nM. `CC(=O)N(C)c1c[nH]/c(=N\c2ccc(Oc3cccc(C(=O)O)n3)cc2)n(Cc2ccc(Cl)cc2)c1=O` [Compound I-210] gave an IC50 of 17 nM. `O=C(Nc1c[nH]/c(=N\c2ccc(Oc3ccon3)cc2)n(Cc2ccc(Cl)cc2)c1=O)C1CC(F)(F)C1` [Compound I-211] showed an IC50 of 15 nM. `O=C(Nc1c[nH]/c(=N\c2ccc(Oc3ccon3)cc2)n(Cc2ccc(Cl)cc2)c1=O)C1CCOC1` (centres unmarked) [Compound I-212] was tested, and the IC50 was 11 nM. In the case of `O=C(Nc1c[nH]/c(=N\c2ccc(Oc3ccon3)cc2)n(Cc2ccc(Cl)cc2)c1=O)C1CCOC1` (centres unmarked) [Compound I-213], the IC50 is reported as 27 nM. `O=C(Nc1c[nH]/c(=N\c2ccc(Oc3ccc(F)cn3)cc2)n(Cc2ccc(Cl)cc2)c1=O)C1COC1` [Compound I-214] gave an IC50 of 13 nM. `N#Cc1cccc(Oc2ccc(Nc3nc(=O)c(C(=O)NC4CCOCC4)cn3Cc3ccc(Cl)cc3)cc2)n1` [Compound I-216] was tested, and the IC50 was 6 nM. `NC(=O)c1cccc(Oc2ccc(Nc3nc(=O)c(C(=O)NC4CCOCC4)cn3Cc3ccc(Cl)cc3)cc2)n1` [Compound I-217] gave an IC50 of 5 nM. `O=c1c(NC(=O)[C@H]2C[C@H](F)C2)c[nH]/c(=N\c2ccc(Oc3ccon3)cc2)n1Cc1ccc(Cl)cc1` [Compound I-218] was tested, and the IC50 was 17 nM. Work on `O=c1c(NC(=O)[C@H]2C[C@@H](F)C2)c[nH]/c(=N\c2ccc(Oc3ccon3)cc2)n1Cc1ccc(Cl)cc1` [Compound I-219] yielded an IC50 of 14 nM. With `CN(C)C(=O)c1c[nH]/c(=N\c2ccc(Oc3cccc(C(N)=O)n3)cc2)n(Cc2ccc(Cl)cc2)c1=O` [Compound I-220] the IC50 was 178 nM. Compound `Cc1nsc(Oc2ccc(/N=c3\[nH]cc(C(=O)N(C)C)c(=O)n3Cc3ccc(Cl)cc3)cc2)n1` [Compound I-221] has an IC50 of 65 nM. Compound `CN(C)C(=O)c1c[nH]/c(=N\c2ccc(Oc3cccc(C(=O)O)n3)cc2)n(Cc2ccc(Cl)cc2)c1=O` [Compound I-222] has an IC50 of 47 nM. With `O=C(Nc1c[nH]/c(=N\c2ccc(Oc3ccon3)cc2)n(Cc2ccc(Cl)cc2)c1=O)c1ccno1` [Compound I-223] the IC50 was 78 nM. Compound `Cc1nsc(Oc2ccc(/N=c3\[nH]cc(NC(=O)C4CCOCC4)c(=O)n3Cc3ccc(Cl)cc3)cc2)n1` [Compound I-225] has an IC50 of 6 nM. In the case of `O=C(Nc1c[nH]/c(=N\c2ccc(Oc3ccon3)cc2)n(Cc2ccc(Cl)cc2)c1=O)c1ccon1` [Compound I-226], the IC50 is reported as 208 nM. `N#Cc1cc(Oc2ccc(Nc3nc(=O)c(C(=O)NC4CCOCC4)cn3Cc3ccc(Cl)cc3)cc2)ccn1` [Compound I-227] gave an IC50 of 6 nM. With `N#Cc1ccc(Oc2ccc(Nc3nc(=O)c(C(=O)NC4CCOCC4)cn3Cc3ccc(Cl)cc3)cc2)nc1` [Compound I-228] the IC50 was 10 nM. With `N#Cc1ccc(Oc2ccc(Nc3nc(=O)c(C(=O)NC4CCOCC4)cn3Cc3ccc(Cl)cc3)cc2)cn1` [Compound I-229] the IC50 was 7 nM. Work on `O=C(Nc1c[nH]/c(=N\c2ccc(Oc3ccon3)cc2)n(Cc2ccc(Cl)cc2)c1=O)c1cc[nH]n1` [Compound I-231] yielded an IC50 of 388 nM. Compound `Cn1cc(C(=O)Nc2c[nH]/c(=N\c3ccc(Oc4ccon4)cc3)n(Cc3ccc(Cl)cc3)c2=O)cn1` [Compound I-233] has an IC50 of 236 nM. `O=C(Nc1c[nH]/c(=N\c2ccc(Oc3ccon3)cc2)n(Cc2ccc(Cl)cc2)c1=O)c1cn[nH]c1` [Compound I-235] was tested, and the IC50 was 225 nM. Work on `N#C/N=C(/Nc1c[nH]/c(=N\c2ccc(Oc3ccon3)cc2)n(Cc2ccc(Cl)cc2)c1=O)Oc1ccccc1` [Compound I-237] yielded an IC50 of 219 nM. In the case of `CCOC(=O)/N=C(\NC)Nc1c[nH]/c(=N\c2ccc(Oc3ccon3)cc2)n(Cc2ccc(Cl)cc2)c1=O` [Compound I-238], the IC50 is reported as 990 nM. `NC(=O)c1ccc(Oc2ccc(Nc3nc(=O)c(C(=O)NC4CCOCC4)cn3Cc3ccc(Cl)cc3)cc2)nc1` [Compound I-239] showed an IC50 of 5 nM. In the case of `NC(=O)c1cc(Oc2ccc(Nc3nc(=O)c(C(=O)NC4CCOCC4)cn3Cc3ccc(Cl)cc3)cc2)ccn1` [Compound I-240], the IC50 is reported as 6 nM. Compound `CCC(=O)N(C)C1=CN/C(=N\c2ccc(Oc3cccc(C(=O)O)n3)cc2)N(Cc2ccc(Cl)cc2)C1` [Compound I-241] has an IC50 of 8 nM. With `C/C(O)=C(/C#N)C(=O)Nc1c[nH]/c(=N\c2ccc(Oc3ccon3)cc2)n(Cc2ccc(Cl)cc2)c1=O` [Compound I-242] the IC50 was 6 nM. `CN/C(=N\C#N)Nc1c[nH]/c(=N\c2ccc(Oc3ccon3)cc2)n(Cc2ccc(Cl)cc2)c1=O` [Compound I-243] gave an IC50 of 557 nM. `COC(=O)[C@@H](C)Cn1c(=O)cc(Nc2ccc(Oc3cccc(F)c3)c(C)n2)n(Cc2ccc(Cl)cc2)c1=O` [Compound I-244] showed an IC50 of 646 nM. In the case of `Cc1nc(Nc2cc(=O)n(C[C@H](C)C(=O)O)c(=O)n2Cc2ccc(Cl)cc2)ccc1Oc1cccc(F)c1` [Compound I-245], the IC50 is reported as 58 nM. `CCn1c(=O)cc(Nc2ccc(Oc3cccc(C#N)c3)c(C)n2)n(Cc2ccc(Cl)cc2)c1=O` [Compound I-246] gave an IC50 of 71 nM. In the case of `CCCn1c(=O)cc(Nc2ccc(Oc3cccc(C#N)c3)c(C)n2)n(Cc2ccc(Cl)cc2)c1=O` [Compound I-247], the IC50 is reported as 96 nM. Work on `Cc1cc(/N=c2\[nH]cc(NC(=O)C3CCOCC3)c(=O)n2Cc2ccc(Cl)cc2)ccc1Oc1ccon1` [Compound I-248] yielded an IC50 of 6 nM. `Cc1cc(Oc2ccc(/N=c3\[nH]cc(NC(=O)C4CCOCC4)c(=O)n3Cc3ccc(Cl)cc3)cc2F)no1` [Compound I-249] showed an IC50 of 6 nM. `CCN/C(=N\C#N)Nc1c[nH]/c(=N\c2ccc(Oc3ccon3)cc2)n(Cc2ccc(Cl)cc2)c1=O` [Compound I-251] gave an IC50 of 118 nM. Compound `O=C(Nc1c[nH]/c(=N\c2ccc(Oc3ccon3)cc2)n(Cc2ccc(Cl)cc2)c1=O)c1ccccc1` [Compound I-253] has an IC50 of 61 nM. `O=C(Nc1c[nH]/c(=N\c2ccc(Oc3ccon3)cc2)n(Cc2ccc(Cl)cc2)c1=O)c1ccccn1` [Compound I-254] gave an IC50 of 868 nM.
